This is an account of results in paper PMC3608651, “A Broad Profile of Co-Dominant Epitopes Shapes the Peripheral Mycobacterium tuberculosis Specific CD8+ T-Cell Immune Response in South African Patients with Active Tuberculosis” (PLoS ONE, 2013).

What all share (type): binding
The target in experiment [1] is T1, HLA-A*24:02 (Homo sapiens, UniProt P04439, D101N/D140Y/D185E/E176V/E190D/F33S/G103R/G107R/I119L/I121M/I306V/K335N/L105A/L180Q/L300P/N151K/N90K/Q86E/Q94H/R106L/R138H/R89G/T104I/T345S/V100E/W191G/Y123F). The conditions noted are these: duplicated experiments, positive binder >40%.
The target of experiment [2] is T1, HLA-A*24:02.
In experiment [3] the target is T1, HLA-A*24:02. The following applies: time points 0-8 h.
Experiment [4] addresses T2, HLA-A*02:01 (Homo sapiens, UniProt P04439, D140Y/D185E/D98H/E176V/E277Q/G131W/G231S/I119V/I121R/I166T/I218V/L300P/L318F/N151K/N90K/P208A/P217A/Q86G/Q94H/R138H/R169H/T345S). The following applies: plate-bound monomer 0.5 µg/ml, duplicated experiments, positive binder >40%.
For experiment [5], the target named is HLA-A*30:01 (Homo sapiens, UniProt P04439, D140H/D185E/E176W/F33S/G80R/H175R/K168Q/R138E/R41S). The conditions noted are these: duplicated experiments, positive binder >40%.
For experiment [6], the target named is T3, HLA-A*30:02 (Homo sapiens, UniProt P04439, D101N/D140H/D185E/E176R/F33S/G80R/H175R/K168Q/Q94H/R138E/R41S/V100E). The following applies: duplicated experiments, positive binder >40%.
Experiment [7] addresses T4, HLA-A*68:01 (Homo sapiens, UniProt P04439, A269V/D185E/E176V/E277Q/E87N/F33Y/G231S/I121M/I166T/I218V/L180W/L300P/L318F/N151K/P208A/P217A/Q86R/R169H/T345S). The following applies: duplicated experiments, positive binder >40%.
The target in experiment [8] is HLA-B*07:02 (Homo sapiens, UniProt P01889). The conditions noted are these: percent relative the binding of positive control peptide […]; duplicated experiments; positive binder >40%.
For experiment [9], the target named is T5, HLA-B*58:01 (Homo sapiens, UniProt P01889, A329T/C349S/D201E/D98Y/E176V/E187L/E204Q/E69T/G107R/I218V/I90N/K202T/L105A/L119I/N104I/N87E/Q89R/Q94S/R106L/R155S/R180L/R86G/S101N/S121R/S35A/S48A/T118I/V127L/V306I/V36M/Y140S/Y91M). The following applies: duplicated experiments, positive binder >40%.
In experiment [10] the target is HLA-C*07:01 (Homo sapiens, UniProt P10321, K90N/S123Y). The following applies: duplicated experiments, positive binder >40%.
Experiment [11] has as its target T2, HLA-A*02:01. The following applies: peptide quantity for 50% binding saturation.
Experiment [12] has as its target T2, HLA-A*02:01. The conditions noted are these: time points 0-8 h; time when 50% of peptide has dissociated.
For experiment [13], the target named is T3, HLA-A*30:02.
For experiment [14], the target named is T3, HLA-A*30:02. The conditions noted are these: time points 0-8 h.
Experiment [15] addresses T4, HLA-A*68:01.
The target of experiment [16] is T4, HLA-A*68:01. The conditions noted are these: time points 0-8 h.
The target of experiment [17] is T5, HLA-B*58:01.
Experiment [18] addresses T5, HLA-B*58:01. The following applies: time points 0-8 h.
The mark [19] stands for this setting: percent relative the binding of positive control peptide […].
The mark [20] stands for this setting: percent relative the binding of positive control peptide FLPSDFFPSV
[21] abbreviates: percent relative the binding of positive control peptide RYLKDQQLL
[22] abbreviates: peptide titrated 10−4 to 10−9 M.
The mark [23] stands for this setting: percent relative the binding of positive control peptide KTKDIVNGL
Setting [24] is: percent relative the binding of positive control peptide KIQNFRVYY
[25] abbreviates: percent relative the binding of positive control peptide KTGGPIYKR
Setting [26] is: percent relative the binding of positive control peptide IAMESIVIW
[27] abbreviates: percent relative the binding of positive control peptide KYFDEHYEY

Read-outs that look alike come from different tables or passages of the source.

Consider GYAGTLQNL [Rv0288_20–28m1], for which the “Bind A*24:02” value in experiment [1] (setting [19]) is reported as 68%. Further, the “Aff A*24:02 (ED50)” value in experiment [2] is 1e-07 M. Further, the “O-rate A*24:02 (t1/2)” value in experiment [3] worked out at 18 min.
In the case of SGSEAYQGV [Rv3875_46–54], the “Bind A*02:01” value in experiment [4] (setting [20]) is reported as 22%. Further, in experiment [1] (setting [21]), the “Bind A*24:02” value is on record as 54%. Besides, the “Aff A*24:02 (ED50)” value in experiment [2] (setting [22]) came out at 9e-09 M. The “O-rate A*24:02 (t1/2)” value in [3] worked out at 30 min. Moreover, the “Bind A*30:01” value in experiment [5] (setting [23]) stood at 0%. The “Bind A*30:02” value in experiment [6] (setting [24]) turned out to be 0%. In addition, in experiment [7] (setting [25]), the “Bind A*68:01” value stood at 0%. Also, the “Bind B*07:02” value in experiment [8] is 9%. Also, the “Bind B*58:01” value in [9] (setting [26]) is recorded as 2%. Also, the “Bind C*07:01” value in experiment [10] (setting [27]) came to 24%.
For the sequence MYNYPTMLD [Rv0288_5–13m3], in experiment [1] (setting [19]), the “Bind A*24:02” value was 76%. Besides, in experiment [2], the “Aff A*24:02 (ED50)” value turned out to be 2e-08 M. Also, the “O-rate A*24:02 (t1/2)” value in experiment [3] worked out at 30 min. For the same sequence, the “Bind A*30:02” value in experiment [6] (setting [19]) came out at 0%.
On to YWGAQLNAM, for which the “Bind A*02:01” value in experiment [4] (setting [19]) is on record as 11%. In experiment [1] (setting [19]), the “Bind A*24:02” value was 113%. Also, the “Aff A*24:02 (ED50)” value in experiment [2] worked out at 8e-09 M. For the same sequence, the “O-rate A*24:02 (t1/2)” value in [3] stood at 30 min. In experiment [5] (setting [19]), the “Bind A*30:01” value was 0%. Further, in experiment [6] (setting [19]), the “Bind A*30:02” value is 63%. The “Bind A*68:01” value in experiment [7] (setting [19]) is on record as 16%. Moreover, the “Bind B*07:02” value in experiment [8] came to 12%. For the same sequence, the “Bind B*58:01” value in experiment [9] (setting [19]) is on record as 0%. The “Bind C*07:01” value in [10] (setting [19]) is recorded as 0%.
In the case of AMASTEGNV [Rv3875_82–90], in experiment [4] (setting [20]), the “Bind A*02:01” value stood at 87%. For the same sequence, the “Aff A*02:01 (ED50)” value in experiment [11] (setting [22]) is 3e-08 M. Further, the “O-rate A*02:01 (t1/2)” value in experiment [12] was found to be 60 min. Besides, in experiment [1] (setting [21]), the “Bind A*24:02” value amounted to 0%. For the same sequence, the “Bind A*30:01” value in experiment [5] (setting [23]) is given as 0%. For the same sequence, the “Bind A*30:02” value in [6] (setting [24]) turned out to be 102%. Besides, the “Aff A*30:02 (ED50)” value in experiment [13] (setting [22]) was found to be 0.007 µM. Further, the “O-rate A*30:02 (t1/2)” value in [14] came to 150 min. The “Bind A*68:01” value in [7] (setting [25]) turned out to be 0%. In addition, the “Bind B*07:02” value in experiment [8] was 11%. In [9] (setting [26]), the “Bind B*58:01” value stood at 0%. For the same sequence, the “Bind C*07:01” value in experiment [10] (setting [27]) worked out at 3%.
For the sequence GWDINTPAF, the “Bind A*02:01” value in experiment [4] (setting [19]) turned out to be 0%. In addition, the “Bind A*24:02” value in experiment [1] (setting [19]) is listed as 146%. For the same sequence, the “Aff A*24:02 (ED50)” value in experiment [2] amounted to 1E -07 M. The “O-rate A*24:02 (t1/2)” value in experiment [3] came out at 66 min. Also, in [5] (setting [19]), the “Bind A*30:01” value is listed as 11%. In experiment [6] (setting [19]), the “Bind A*30:02” value is 0%. Moreover, in experiment [7] (setting [19]), the “Bind A*68:01” value is 5%. In [8], the “Bind B*07:02” value is 22%. Further, in [9] (setting [19]), the “Bind B*58:01” value was found to be 0%. In experiment [10] (setting [19]), the “Bind C*07:01” value came out at 10%.
Take HSMSSTHEA [Rv0288_70–78m1]: in experiment [4] (setting [19]), the “Bind A*02:01” value stood at 45%. The “Aff A*02:01 (ED50)” value in experiment [11] ([…]) worked out at 0.001 M. In [12], the “O-rate A*02:01 (t1/2)” value was found to be 18 min. Besides, in [6] (setting [19]), the “Bind A*30:02” value came to 39%. In addition, in experiment [13], the “Aff A*30:02 (ED50)” value amounted to 0.006 µM. The “O-rate A*30:02 (t1/2)” value in [14] was 54 min. Besides, the “Bind A*68:01” value in [7] (setting [19]) amounted to 0%.
With MYNYPTMLG [Rv0288_5–13m1], the “Bind A*24:02” value in [1] (setting [19]) is listed as 47%. For the same sequence, the “Aff A*24:02 (ED50)” value in [2] was 2e-07 M. Also, the “O-rate A*24:02 (t1/2)” value in experiment [3] was found to be 30 min. Besides, in experiment [6] (setting [19]), the “Bind A*30:02” value came out at 23%.
For the sequence GT HSWEYWG, in experiment [4] (setting [19]), the “Bind A*02:01” value was found to be 43%. Moreover, in experiment [11] ([…]), the “Aff A*02:01 (ED50)” value came to 2E -06 M. Also, the “O-rate A*02:01 (t1/2)” value in experiment [12] was 18 min. Also, in [1] (setting [19]), the “Bind A*24:02” value is 2%. Also, the “Bind A*30:01” value in [5] (setting [19]) was found to be 0%. Also, the “Bind A*30:02” value in [6] (setting [19]) worked out at 79%. The “Aff A*30:02 (ED50)” value in experiment [13] amounted to 30 µM. For the same sequence, the “O-rate A*30:02 (t1/2)” value in experiment [14] amounted to 132 min. Further, the “Bind A*68:01” value in experiment [7] (setting [19]) is listed as 71%. The “Aff A*68:01 (ED50)” value in [15] is listed as 1E -05 M. Moreover, the “O-rate A*68:01 (t1/2)” value in experiment [16] is 12 min. Moreover, the “Bind B*07:02” value in experiment [8] is 3%. Besides, in experiment [9] (setting [19]), the “Bind B*58:01” value is 58%. Moreover, the “Aff B*58:01 (ED50)” value in experiment [17] is 0.3 µM. In experiment [18], the “O-rate B*58:01 (t1/2)” value was 174 min. For the same sequence, in experiment [10] (setting [19]), the “Bind C*07:01” value is listed as 25%.
Turning to AMLDHAGDM [Rv0288_10–18m2], the “Bind A*02:01” value in experiment [4] (setting [19]) stood at 47%. Moreover, the “Aff A*02:01 (ED50)” value in experiment [11] ([…]) was found to be 8e-08 M. The “O-rate A*02:01 (t1/2)” value in experiment [12] was 66 min. Further, in experiment [1] (setting [19]), the “Bind A*24:02” value came out at 13%. The “Bind A*30:02” value in [6] (setting [19]) is recorded as 100%. The “Aff A*30:02 (ED50)” value in [13] came out at 0.7 µM. Also, the “O-rate A*30:02 (t1/2)” value in experiment [14] was 24 min.
Turning to VQQKWDATA [Rv3875_54–62], in experiment [4] (setting [20]), the “Bind A*02:01” value turned out to be 54%. In addition, in experiment [11] (setting [22]), the “Aff A*02:01 (ED50)” value was determined as 5e-09 M. Moreover, in experiment [12], the “O-rate A*02:01 (t1/2)” value stood at 72 min. Besides, the “Bind A*24:02” value in experiment [1] (setting [21]) stood at 0%. Besides, the “Bind A*30:01” value in experiment [5] (setting [23]) is 21%. The “Bind A*30:02” value in experiment [6] (setting [24]) was 76%. In experiment [13] (setting [22]), the “Aff A*30:02 (ED50)” value stood at 0.06 µM. The “O-rate A*30:02 (t1/2)” value in experiment [14] worked out at 96 min. The “Bind A*68:01” value in [7] (setting [25]) is reported as 0%. Besides, in experiment [8], the “Bind B*07:02” value is 9%. The “Bind B*58:01” value in [9] (setting [26]) is listed as 12%. For the same sequence, the “Bind C*07:01” value in experiment [10] (setting [27]) came to 9%.
